From patent US20240148648A1, “SUSTAINED RELEASE THERMOSETTING GELS COMPRISING ANESTHETIC DRUGS AND THE METHODS OF MAKING THE SAME” (Pacira Therapeutics, Inc., priority 2021, published 2024)
Converted amounts (≈) assume the structure as drawn.

Tests used:
[1] = Rheological analysis of hydrogel formulations (CGT, onset temperature, max G′); assay type: physicochemical; conditions: compared to the vehicle
Description: PEG 400 was used as a co-solvent to further enhance solubility of the active in aqueous media and to decrease the gelation temperature to be close to but below body temperature. Rheological properties including critical gelation temperature (CGT), onset temperature, and elastic (G′) and viscous (G″) moduli were used in conjunction with visual and IVR experiments to analyze the impact of different formulation component compositions and concentrations on the suitability of the formulation in an extended-release postsurgical pain management indication. […] The onset temperature refers to the temperature at which the viscous moduli begins to increase in rheometry.

physchem = conditions: for solubility: organic solvent or mixture
Experimental: In order to determine a suitable solvent, the solubility of all three APIs were determined in dimethyl sulfoxide, ethyl acetate, methylene chloride (DCM), benzyl alcohol, and dimethylacetamide (DMA).

[2] = In vitro release (IVR) at 37° C. in surfactant-containing media; assay type: physicochemical; conditions: cumulative drug release in vitro
Experimental: The formulations that transitioned only to a viscous liquid (and not an opaque depot) also dissolved with the addition of media in in vitro release (IVR) studies. Such formulations were not further characterized for IVR profile. IVR was conducted by placing an aliquot of formulation into a 50 mL conical tube placed in a 37° C. water bath on a shaker. The formulation was left to gel before surfactant-containing media was slowly added as not to disturb any formed depot.

solubility (physchem) [mg/mL]	SMILES	Impact of drug on gelation properties of the formulation [1]	Solubility in DCM (physchem)	In vitro release profile (in words) [2]
200 (≈ 693 mM)	CCCCN1CCCCC1C(=O)Nc1c(C)cccc1C (stereo not drawn) [bupivacaine, 1-butyl-N-(2,6-dimethylphenyl)piperidine-2-carboxamide]	slight impact on the onset temperatures	solubilized bupivacaine but did not maintain adequate drug solubility when mixed with the polymer system	
	CCN(CC)CC(=O)Nc1c(C)cccc1C [lidocaine, 2-(diethylamino)-N-(2,6-dimethylphenyl)acetamide]			faster drug release
80 (≈ 292 mM)	CCCN1CCCC[C@H]1C(=O)Nc1c(C)cccc1C [ropivacaine, (2S)—N-(2,6-dimethylphenyl)-1-propylpiperidine-2-carboxamide]	slight decrease on the onset temperatures and max G′ values		
